Experimental data reported in patent US20160089391A1, “Molecular Targets for Cardiovascular Disease” (Temple University-of the Commonwealth System of Higher …, priority 2014, published 2016).

What was measured:
[1] = tested on: calpain; assay: t-BOC calpain activity assay in intact HAECs; assay type: cell-based, human; conditions: HAECs; DL-Hcy 500 μmol/L and/or D-Glu 25 mmol/L for 48 hrs
Protocol: (FIG. 5A). In situ .O2^− production in aorta. (FIG. 5B). Nitrotyrosine (3-NT) levels. Aortic paraffin-cross sections (7 μm) from Cbs^−/+ mice were stained with 3-NT antibody and 3,3′-diaminobenzidine (DAB, brown). (FIG. 5C). Urinary 8-isoprostane levels. At the age of 8-week, Cbs^+/+ and Cbs^−/+ mice were fed with a high methionine diet (HM, methionine: 2% w/w) for 8 weeks, and/or injected with streptozotocin (STZ, i.p., 40 mg/kg) for 5 consecutive days starting from the first day of experiment. Mice fed with a control diet (CT, methionine: 0.37% w/w) and injected with vehicle (50 mM citrate buffer) served as controls. Aortic cryo-cross sections (30 μm) from Cbs^−/+ mice were stained with the superoxide marker dihydroethidium (DHE, 3 μmol/L, 30 mins.). Urine was collected from 24 hrs metabolic cage. (FIG. 5D). Endothelium-dependent vascular relaxation in HHcy/HG CBS^−/+ mouse aorta in the presence of antioxidants. Arterial rings were pre-contracted with phenylephrine (1 μmol/L) and examined for relaxation to cumulative additions of ACh in the aorta of STZ-treated Cbs^−/+ mice on HM diet. The arterial rings were preincubated with antioxidants polyethylene glycol superoxide dismutase (PEG-SOD, 150 U/mL, Sigma #S9549), Tempol (1 mmol/L, Sigma #176141), or apocynin (10 μmol/L, Sigma #W508454) for 1 hr. n=3-5. *p<0.05 vs vehicle-treated Cbs^−/+ mice on CT diet; †p<0.05 vs vehicle-treated Cbs^−/+ mice on HM diet; ‡p<0.05 vs STZ-treated Cbs^−/+ mice on CT diet; #p<0.05 vs STZ-treated Cbs^−/+ mice on HM diet. (FIG. 5E). […] Calpain activity was measured by the fluorescent substrate t-BOC-Leu-Met-CMAC (T-BOC, 10 μmol/L, 30 min) Human aortic endothelial cells (HAECs, passage 8-9) were cultured in EC medium which contains 5 mmol/L D-glucose (D-Glu), treated with DL-homocysteine (DL-Hcy, 500 μmol/L) and/or D-Glu (25 mmol/L) with or without […] (150 U/mL) or MDL28170 (MDL, 20 μmol/L) for 48 hrs, or CTsiRNA and μ-calpsiRNA for 72 hrs. […] Transfection effect of μ-calpsiRNA in HAECs was detected by Western blot after transfected with the siRNA for indicated time. […]

[2] = tested on: eNOS-pThr495; assay: eNOS-pThr495 protein levels in HAECs; assay type: cell-based, human; conditions: for eNOS-pThr497/495 levels increase: HAECs, DL-Hcy 500 μmol/L or D-Glu 25 mmol/L
Protocol: (FIG. 7A). eNOS protein levels in mouse aorta of Cbs^−/+ mice (Left Panel) and HAECs (Right Panel). (FIG. 7B). eNOS-pThr497/495 protein levels in mouse aorta of Cbs^−/+ mice (Left Panel) and in HAECs (Right Panel). At the age of 8-week, Cbs^−/+ mice were fed with a high methionine diet (HM, methionine: 2% w/w) for 8 weeks, and/or injected with streptozotocin (STZ, i.p., 40 mg/kg) for 5 consecutive days starting from the first day of experiment. Mice fed with a control diet (CT, methionine: 0.37% w/w) and injected with vehicle (50 mmol/L citrate buffer) served as controls. Human aortic endothelial cells (HAECs, passage 8-9) were cultured in EC medium which contains 5 mmol/L D-glucose (D-Glu), treated with DL-homocysteine (DL-Hcy, 500 μmol/L) and/or D-Glu (25 mmol/L). (FIG. 7C). eNOS-pThr495 protein levels in HAECs. HAECs (passage 8-9) were cultured in EC medium which contains 5 mmol/L D-glucose (D-Glu), treated with DL-homocysteine (DL-Hcy, 500 μmol/L) and D-Glu (25 mmol/L for 48 hrs with or without non-specific PKC inhibitor GF109203X (GFX) (2 μmol/L, 30 min.); control adenoviruse (Ad-CT, 200 MOI, 72 hrs), dominant negative PKCβ2 adenovirus (Adv-dnPKCβ2, 200 MOI, 72 hrs); μ-calpain siRNA (μ-calpsiRNA, Santa Cruz #sc-29885, 72 hrs), or MDL ([…], 48 hrs, Sigma #M6690). (FIG. 7D). Transfection effect of Adv-dnPKCβ2in HAECs. Cultured HAECs (passage 8, 80% confluence) were treated with 12.5, 25, 50, 100 and 200 MOI Adv-dnPKCβ2 for 48 hrs. n=3, *p<0.05 vs control; †p<0.05 vs DL-Hcy-treated HAECs; ‡p<0.05 vs D-Glu-treated HAECs; #p<0.05 vs DL-Hcy/D-Glu-treated HAECs. Cbs, cystathionine β-synthase; eNOS, endothelial nitric oxide synthase; eNOS-pThr495/497, phosphorylation of eNOS at threonine 497 (mouse)/495 (human).
Human aortic endothelial cells (HAECs) were cultured in cell culture medium (M199, HyClone) as previously described (Wang et al., 1997, J Biol Chem 272:25380-25385). The HAECs were treated with DL-Hcy (200 or 500 μmol/L) and/or D-glucose (D-Glu, 25 mmol/L) for 24 or 48 hrs in the presence or absence of selected pharmacological inhibitors or siRNA or adenovirus.

[3] = tested on: eNOS; assay: eNOS protein levels in HAECs; assay type: cell-based, human
Protocol: (FIG. 7A). eNOS protein levels in mouse aorta of Cbs^−/+ mice (Left Panel) and HAECs (Right Panel). (FIG. 7B). eNOS-pThr497/495 protein levels in mouse aorta of Cbs^−/+ mice (Left Panel) and in HAECs (Right Panel). At the age of 8-week, Cbs^−/+ mice were fed with a high methionine diet (HM, methionine: 2% w/w) for 8 weeks, and/or injected with streptozotocin (STZ, i.p., 40 mg/kg) for 5 consecutive days starting from the first day of experiment. Mice fed with a control diet (CT, methionine: 0.37% w/w) and injected with vehicle (50 mmol/L citrate buffer) served as controls. Human aortic endothelial cells (HAECs, passage 8-9) were cultured in EC medium which contains 5 mmol/L D-glucose (D-Glu), treated with DL-homocysteine (DL-Hcy, 500 μmol/L) and/or D-Glu (25 mmol/L). (FIG. 7C). eNOS-pThr495 protein levels in HAECs. […]

[4] = tested on: mouse thoracic aorta; assay: Endothelium-dependent vascular relaxation to ACh in aortic rings treated ex vivo (multiple-wire myograph); conditions: aortic rings of HHcy/HG-Cbs−/+ mice preincubated with calpain inhibitor 20 μmol/L for 1 hour; p<0.05

Row | Compound | calpain activity increase [1] | eNOS-pThr497/495 levels increase [2] | effect on eNOS protein levels ([3]; D-Glu 25 mmol/L, in the presence or absence of DL-Hcy) | HHcy/HG-induced eNOS-pThr495 ([2]; HAECs with DL-Hcy 500 μmol/L and D-Glu 25 mmol/L 48 hrs, GFX 2 μmol/L 30 min, MDL 20 mmol/L 48 hrs, Adv-dnPKCβ2 200 MOI 72 hrs, siRNA 72 hrs) | aortic endothelium-dependent vascular relaxation to ACh [4] | decrease of eNOS protein levels ([3]; DL-Hcy 500 μmol/L, 48 hrs)
1 | O=C[C@H](O)[C@@H](O)[C@H](O)[C@H](O)CO [D-Glu, D-glucose] | 2.3 fold | 1.5 fold | no effect |  |  | 
2 | MDL28170 |  |  |  | completely rescued | markedly improved | 
3 | NC(CCS)C(=O)O (racemic) [DL-Hcy, DL-homocysteine] | 1.8 fold | 1.6 fold |  |  |  | 59%
